Reference: US20230226036A1, “ARIMOCLOMOL FOR TREATING GAUCHER DISEASE” (ORPHAZYME A/S, priority 2020, published 2023)
“Also recorded” adds a separate entry of the source.

Experiments:
[1] = tested on: serum chitotriosidase activity; assay: Serum chitotriosidase activity, phase 2 trial in Gaucher disease type 1 or 3 (primary endpoint); format: in vivo, human; conditions: for Relative change in chitotriosidase activity from baseline versus placebo: 6 months, all dosage groups, significance not achieved (p=0.4), FIG. 2
Experimental: This is a placebo-controlled, randomised, double-blinded trial evaluating the response of 3 dose levels of arimoclomol on various pharmacodynamic (PD) biomarkers in blood and cerebrospinal fluid (CSF) as indicators of enhanced glucocerebrosidase (GBA) enzyme activity in GD1 and GD3.
(§1) Eligible GD1 and GD3 patients were randomised into 4 groups on a 1:1:1:1 basis to receive arimoclomol 300 mg/day, arimoclomol 600 mg/day, arimoclomol 1200 mg/day, or placebo treatment (3 times daily [t.i.d] dosing).
The primary efficacy endpoint of the trial was the percentage change in serum chitotriosidase activity (marker of macrophage activation) from baseline to 6 months, where baseline was defined as the mean value of the predose visits (Visit 1 and Visit 2).
The primary efficacy endpoint was analysed using an Analysis of Covariance (ANCOVA) model on the ITT population. The log of chitotriosidase activity was used in the analysis. The response variable for ANCOVA model was the log of chitotriosidase activity at 6 months, and the independent variables included IMP dose as randomized (300 mg/day, 600 mg/day, 1200 mg/day, and 0 mg/day [for placebo]) as a continuous variable, GD type, and log of baseline chitotriosidase. Supportive analysis was conducted using the same model but with the dose actually received at Visit 3 following possible dosing adjustment based on PK assessment at Visit 2.

[2] = tested on: glycosylsphingosine (lyso-Gb1); assay: Plasma glycosylsphingosine (lyso-Gb1), phase 2 trial in Gaucher disease; format: in vivo, human; conditions: after 6 months, statistical significance not achieved, FIG. 6
Experimental: as §1
(§2) The exploratory biomarker endpoints, as measured in the blood, included: • Change* in plasma glucosylsphingosine (GlcSph) levels at 6 months and every 6 months until trial end. • Change* in haemoglobin, ferritin, and platelet levels at 6 months and every 6 months until trial end. • Change* in GBA enzyme activity (leukocytes) at 6 months and every 6 months until trial end. • Change* in serum macrophage inflammatory protein-1b (MIP-1P; cytokine for bone involvement) at 6 months and every 6 months until trial end.
(§3) Secondary efficacy endpoints, including change in weight and height, change in liver size, change in spleen size, and change in biomarkers (blood and CSF) relative to baseline (where appropriate) were analysed using an ANCOVA model with treatment group (dose actually received at Visit 3 following possible dosing adjustment based on PK assessment at Visit 2, or placebo) and corresponding baseline value as covariate. For the biomarker analysis, appropriate data transformation was conducted before statistical analysis, if necessary.

haemoglobin = assay: Haemoglobin in patients anaemic at baseline, phase 2 trial in Gaucher disease; format: in vivo, human; conditions: highest dose group (1200 mg/day), time-trend analysis p<0.05, FIG. 5
Experimental: as §1, §2, §3

[3] = Plasma exposure (AUC0-8) estimated by population PK modelling in GD1/GD3 patients; format: in vivo, human; conditions: 300, 600, 1200 mg/day t.i.d. oral (weight-adjusted), FIG. 1
Description: All patients underwent an arimoclomol single-dose (100-mg single dose for the 300-mg/day treatment group, 200-mg single dose for the arimoclomol 600-mg/day treatment group, 400-mg single dose for the arimoclomol 1200-mg/day treatment group, or corresponding dose per kg for paediatric patients prior to the effective date of this protocol. Single dose pharmacokinetics (PK) was done with corresponding dose per kg for all patients randomised after the effective date of this protocol) pharmacokinetic (PK) evaluation at Visit 2 following randomization to confirm the suitability (in terms of target investigational medicinal product (AUC0-8—area under the curve [AUC] from time 0 to 8 hours [AUC0-8]) of the selected doses in the trial. Following the single dose, blood samples for PK analysis were collected at predose, and 0.5, 1, 2, 4, and 8 hours postdose. […] The corresponding data was evaluated by an independent assessor to verify the AUC0-8. […]
In the event that the AUC was above the target, or an unexpected profile which could potentially impact the safety of the patient was obtained, and the patient required a dose reduction, the patient was dispensed a reduced dose of IMP (blinded) at Visit 3. […] Additional blood samples for quantitative population PK analysis of arimoclomol were collected predose and at 0.5 hours postdose at Visit 5, and predose and 1.5 hours postdose at Visit 7. […]

liver size = assay: Liver size by ultrasound, phase 2 trial in Gaucher disease type 1 or 3; format: in vivo, human; conditions: 6 months, 300/600/1200 mg/day, dose-trend effect p<0.05, FIG. 3
Experimental: as §1
(§4) The imaging efficacy endpoint consisted of the change in the size (centimetres) of the liver and spleen (assessed by ultrasound) at 6 months and bi-annually until trial end. Clinical GD severity endpoints (all patients): • Gaucher disease Type 1 Disease Severity Scoring System (GD1-DS3) • Modified Severity Scoring Tool (mSST)
as §3

Gaucher's disease type 1 = assay: Clinical GD1 severity score (GD1-DS3), phase 2 trial in Gaucher disease; format: in vivo, human; conditions: 6 months, statistical significance not achieved
Experimental: Eligible GD1 and GD3 patients were randomised into 4 groups on a 1:1:1:1 basis to receive arimoclomol 300 mg/day, arimoclomol 600 mg/day, arimoclomol 1200 mg/day, or placebo treatment (3 times daily [t.i.d] dosing). The imaging efficacy endpoint consisted of the change in the size (centimetres) of the liver and spleen (assessed by ultrasound) at 6 months and bi-annually until trial end. Clinical GD severity endpoints (all patients): • Gaucher disease Type 1 Disease Severity Scoring System (GD1-DS3) • Modified Severity Scoring Tool (mSST)

[4] = background statement; cited from earlier work
spleen size = assay: Spleen size by ultrasound, phase 2 trial in Gaucher disease type 1 or 3; format: in vivo, human; conditions: 6 months, 300/600/1200 mg/day, dose trend analysis p<0.10, FIG. 4
Experimental: as §1, §4, §3

## [O-][n+]1cccc(/C(Cl)=N/OC[C@H](O)CN2CCCCC2)c1 [arimoclomol, (+)-(R)—N-[2-hydroxy-3-(1-piperidinyl)-propoxy]-pyridine-1-oxide-3-carboximidoyl chloride]
[1]
  Relative change in chitotriosidase activity from baseline versus placebo: relative reduction in chitotriosidase activity from baseline
[1]; listed as Arimoclomol
  Relative change in chitotriosidase activity from baseline versus placebo: relative reduction in serum chitotriosidase activity
[1]; baseline to 6 months, 300/600/1200 mg/day vs. placebo
  Change in chitotriosidase activity across treatment groups: lower increase in arimoclomol groups vs. placebo
[2]
  Change from baseline of plasma glycosylsphingosine (lyso-Gb1): trend towards a dose-dependent increase
haemoglobin
  Haemoglobin over time: time-dependent increase in haemoglobin
[3]
  Plasma exposure (AUC): dose-dependent increase in plasma exposure
Liver size
  Liver size relative to placebo: dose-dependent effect; also recorded: Clinically meaningful dose-dependent reductions
Gaucher's disease type 1
  Clinical GD1 severity score: directional dose-dependent reduction
[4]
  Blood-brain barrier passage: ability to cross the blood-brain barrier
Spleen size
  Spleen size relative to placebo: dose-dependent effect; also recorded: Clinically meaningful dose-dependent reductions
